Experimental data from ChEMBL document CHEMBL4476875 (2018).
pIC50: −log10 of the molar value.

Assays:
[1] = molecular target: Histone-lysine N-methyltransferase SUV39H2 (Homo sapiens, UniProt Q9H5I1); experiment: Inhibition of SUV39H2 (unknown origin) using H3 histone peptide substrate and [3H]-SAM incubated for 3 hrs by microbeta counting based assay
A549 = experiment: Cytotoxicity against human A549 cells assessed as reduction in cell viability incubated for 72 hrs by CCK8 assay; format: functional, cell-based; settings: A549, 72 h
PC-14 = experiment: Cytotoxicity against human PC14 cells assessed as reduction in cell viability incubated for 72 hrs by CCK8 assay; format: functional, cell-based; settings: PC-14, 72 h
CCD-18Co = experiment: Cytotoxicity against human CCD-18Co cells assessed as reduction in cell viability incubated for 72 hrs by CCK8 assay; format: functional, cell-based
HFL1 = experiment: Cytotoxicity against human HFL1 cells assessed as reduction in cell viability incubated for 72 hrs by CCK8 assay; format: functional, cell-based; settings: HFL1, 72 h
HCT-116 = experiment: Cytotoxicity against human HCT116 cells assessed as reduction in cell viability incubated for 72 hrs by CCK8 assay; format: functional, cell-based; settings: HCT-116, 72 h

Chain of Histone-lysine N-methyltransferase SUV39H2 (Q9H5I1 whole entry): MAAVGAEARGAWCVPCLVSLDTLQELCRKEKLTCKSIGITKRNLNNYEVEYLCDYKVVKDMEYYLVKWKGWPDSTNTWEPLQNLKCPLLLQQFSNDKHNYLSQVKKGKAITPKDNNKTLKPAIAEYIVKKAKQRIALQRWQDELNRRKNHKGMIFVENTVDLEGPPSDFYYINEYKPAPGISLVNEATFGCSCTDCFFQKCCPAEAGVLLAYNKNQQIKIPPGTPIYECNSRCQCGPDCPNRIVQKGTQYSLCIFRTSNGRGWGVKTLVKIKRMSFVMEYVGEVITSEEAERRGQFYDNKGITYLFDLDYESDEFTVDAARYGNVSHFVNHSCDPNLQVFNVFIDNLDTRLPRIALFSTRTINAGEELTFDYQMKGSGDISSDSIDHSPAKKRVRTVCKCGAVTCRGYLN

Compound | pIC50 [1] | pIC50 (A549) | other results
CNCC(=O)Nc1ccc(-c2ccn3cc(-c4cc(Cl)c(OC)cc4OC)nc3c2)cc1 | 7.10 |  | 
COc1cc(OC)c(-c2cn3ccc(N4CCN(c5cnc(N6CCC(NS(=O)(=O)C7CC7)CC6)nc5)CC4)cc3n2)cc1Cl |  | 6.17 | 
COc1cc(OC)c(-c2cn3ccc(N[C@H]4CC[C@@H](N(C)Cc5ccc(F)cc5)CC4)cc3n2)cc1Cl |  | 5.89 | 
COc1cc(OC)c(-c2cn3ccc(N4CCN(Cc5ccc(C#N)nc5)CC4)cc3n2)cc1Cl |  | 6.02 | 
COc1cc(OC)c(-c2cn3ccc(N[C@H]4C[C@H]5CC[C@@H](C4)N5CC4CCCCC4)cc3n2)cc1Cl |  | 6.26 | 
COc1cc(OC)c(-c2cn3ccc(-c4ccc(C(=O)NC5CCNC5)cc4)cc3n2)cc1Cl (centres undefined) |  | 5.27 | pIC50 (PC-14): 5.32; pIC50 (CCD-18Co): 5.28; pIC50 (HFL1): 5.27; pIC50 (HCT-116): 5.43
COc1cc(OC)c(-c2cn3ccc(NC(=O)[C@@H](N)CCCCN)cc3n2)cc1Cl |  | 5.00 | pIC50 (CCD-18Co): 5.00; pIC50 (HFL1): 5.00; pIC50 (HCT-116): 5.00
COc1cc(OC)c(-c2cn3ccc(N4CCN(c5cnc(N6CCNCC6)nc5)CC4)cc3n2)cc1Cl | 7.83 |  | 
COCC(=O)N1CCN(c2ccn3cc(-c4cc(Cl)c(OC)cc4OC)nc3c2)C(C)C1 (centres undefined) | 8.73 |  | 
COc1cc(OC)c(-c2cn3ccc(-c4ccc(C(=O)[C@H](C)N)cc4)cc3n2)cc1Cl | 7.00 |  | 
COC(=O)c1ccc(CN[C@H]2CC[C@@H](Nc3ccn4cc(-c5cc(Cl)c(OC)cc5OC)nc4c3)CC2)cc1 | 7.62 |  | 
COc1cc(OCCCN(C)C)c(-c2cn3ccc(N4CCN(C(C)=O)CC4)cc3n2)cc1Cl |  | 5.16 | pIC50 (PC-14): 5.10; pIC50 (CCD-18Co): 5.06; pIC50 (HFL1): 5.37; pIC50 (HCT-116): 5.10
COc1cc(OC)c(-c2cn3ccc(N[C@H]4CC[C@@H](N(C)Cc5ccccc5F)CC4)cc3n2)cc1Cl |  | 6.13 | 
